We go through 34 molecules from patent publication US6362188B1, “Farnesyl protein transferase inhibitors” (Schering Corporation, priority 1998, dated 2002).

Structures are written as SMILES.

The test system of one series is Human tumor cells. Put plainly: Soft Agar Assay (anchorage-independent growth). Format: cell-based. To be noted: colony outgrowth in soft agar, stated as a range for the group. On the procedure: Anchorage-independent growth is a characteristic of tumorigenic cell lines. Human tumor cells can be suspended in growth medium containing 0.3% agarose and an indicated concentration of a farnesyl transferase inhibitor. The solution can be overlayed onto growth medium solidified with 0.6% agarose containing the same concentration of farnesyl transferase inhibitor as the top layer. After the top layer is solidified, plates can be incubated for 10-16 days at 37° C. under 5% CO2 to allow colony outgrowth. After incubation, the colonies can be stained by overlaying the agar with a solution of MTT (3-[4,5-dimethyl-thiazol-2-yl]-2,5-diphenyltetrazolium bromide, Thiazolyl blue) (1 mg/mL in PBS). Colonies can be counted and the IC50's can be determined.

`Cc1cn(C[C@@H]2CCCN(C(=O)[C@H]3CN([C@@H]4c5ccc(Cl)cc5CCc5ccc[n+]([O-])c54)CCN3C(=O)OC3CCCCC3)C2)cn1` [Example 388] returned a melting point of 108 to 113 °C. The molecule also displayed an IC50 in the series on Human tumor cells of 0.05 to 30 nM. `Cc1cn(C[C@H]2CCCN(C(=O)[C@H]3CN([C@H]4c5ccccc5CCc5cc(Cl)cnc54)CCN3C(=O)OC3CCCCC3)C2)cn1` [Example 321] came in with a melting point of 112 to 121 °C. Also, the IC50 with Human tumor cells fell in the range of 0.05 to 30 nM. The corresponding values for `Cc1cn(C[C@@H]2CCCN(C(=O)[C@H]3CN([C@H]4c5ccc(Cl)cc5CCc5cc(Cl)cnc54)CCN3C(=O)OC3CCCCC3)C2)cn1` [Example 255] are 116 to 126 °C and 0.05 to 30 nM. The corresponding values for `Cc1cn(C[C@H]2CCCN(C(=O)[C@H]3CN([C@@H]4c5ccccc5CCc5cc(Cl)cnc54)CCN3C(=O)OC(C)(C)C)C2)cn1` [Example 294] are 102 to 118 °C and 0.05 to 30 nM.

On to `Cc1cn(C[C@H]2CCCN(C(=O)[C@H]3CN([C@@H]4c5ccccc5CCc5cc(Cl)cnc54)CCN3C(=O)OC3CCCCC3)C2)cn1` [Example 322], for which the melting point is 117 to 125 °C. Moreover, in the series with Human tumor cells, the IC50 lay in the range of 0.05 to 30 nM.

`CC(C)(C)OC(=O)N1CCN(C2c3ccc(Cl)cc3CCc3cccnc32)CC1C(=O)N1CCCC(Cn2ccnc2)C1` (centres unmarked) [Example 24]: the melting point was 115 to 126 °C. In the series on Human tumor cells, this molecule came in with an IC50 of 0.5 to 30 nM. Molecule `Cc1nccn1C[C@H]1CCCN(C(=O)[C@H]2CN([C@H]3c4ccc(Cl)cc4CCc4cccnc43)CCN2C(=O)NC(C)(C)C)C1` [Example 48] displayed a melting point of 111 to 140 °C. In the series on Human tumor cells, this molecule displayed a half-maximal inhibitory concentration (IC50) of 0.5 to 30 nM. The matching figures for `Cc1cn(C[C@@H]2CCCN(C(=O)[C@H]3CN([C@@H]4c5ccccc5CCc5cc(Br)cnc54)CCN3C(=O)OC3CCCCC3)C2)cn1` [Example 352]: 122 to 125 °C and 0.05 to 30 nM. The corresponding values for `Cc1ncn(CC2CCCN(C(=O)C3CN(C4c5ccc(Cl)cc5CCc5cccnc54)CCN3C(=O)OC3CCCCC3)C2)c1C` (single isomer, unassigned) [47(G)] are 98 to 130 °C and 0.05 to 30 nM. The corresponding values for `CCc1cn(CC2CCCN(C(=O)C3CN(C4c5ccc(Cl)cc5CCc5cccnc54)CCN3C(=O)OC3CCCCC3)C2)cn1` (centres unmarked) [47(D)] are 66 to 68 °C and 0.05 to 30 nM. Regarding `Cc1cn(C[C@H]2CCCN(C(=O)[C@H]3CN([C@H]4c5ccc(Cl)cc5CCc5cc(F)cnc54)CCN3C(=O)OC3CCCCC3)C2)cn1` [Example 289], the melting point fell in the range of 120 to 126 °C. Further, the IC50 in the series on Human tumor cells was 0.05 to 30 nM. The matching figures for `Cc1nccn1CC1CCCN(C(=O)C2CN(C3c4ccc(Cl)cc4CCc4cccnc43)CCN2C(=O)OC(C)(C)C)C1` (centres unmarked) [Example 26]: 120 to 132 °C and 0.5 to 30 nM.

Consider `Cc1cn(C[C@@H]2CCCN(C(=O)[C@H]3CN([C@H]4c5ccc(Cl)cc5CCc5cc(F)cnc54)CCN3C(=O)OC(C)(C)C)C2)cn1` [Example 259], for which the melting point fell in the range of 126 to 135 °C. The IC50 in the series on Human tumor cells was 0.05 to 30 nM. The molecule `Cc1cn(CC2CCCN(C(=O)C3CN(C4c5ccc(Cl)cc5CCc5cc(Br)cnc54)CCN3C(=O)OC(C)(C)C)C2)cn1` (centres unmarked) [Example 4.2] registered a melting point of 131 to 135 °C. The same measure, in the same setting: the value for `Cc1cn(CC2CCCN(C(=O)C3CN(C4c5ccc(Cl)cc5CCc5cccnc54)CCN3C(=O)OC3CCCCC3)C2)cn1` (centres unmarked) [47(A)] was 122 to 127 °C; that for `Cc1cn(CC2CCCN(C(=O)C3CN(C4c5ccc(Cl)cc5CCc5cccnc54)CCN3C(=O)OC(C)C)C2)cn1` (centres unmarked) [41(A)] was 117 to 120 °C; that for `CS(=O)(=O)N1CCN(C2c3ccc(Cl)cc3CCc3cc(Br)cnc32)C[C@@H]1C(=O)N1CCC[C@@H]1Cn1ccnc1` (some centres unmarked) [Example 22] was 135 to 141 °C. Still for that read-out and setting: the value for `Cc1cn(CC2CCCN(C(=O)C3CN(C4c5ccc(Cl)cc5CCc5cccnc54)CCN3C(=O)OC3CCCCC3)C2)cn1` (centres unmarked) [Example 43] was 108 to 118 °C; that for `Cc1ncn(CC2CCCN(C(=O)C3CN(C4c5ccc(Cl)cc5CCc5cccnc54)CCN3C(=O)OC3CCCCC3)C2)c1C` (single isomer, unassigned) [47(H)] was 106 to 125 °C; that for `Cc1nccn1CC1CCCN(C(=O)C2CN(C3c4ccc(Cl)cc4CCc4cc(Br)cnc43)CCN2C(=O)OC(C)(C)C)C1` (centres unmarked) [Example 4] was 128 to 133 °C.

Turning to `Cc1cn(CC2CCCN(C(=O)C3CN(C4c5ccc(Cl)cc5CCc5cccnc54)CCN3C(=O)OC3CCCCC3)C2)cn1` (centres unmarked) [47(B)], the melting point is 133 to 139 °C. Same read-out and setting: the value for `Cc1nccn1CC1CCCN(C(=O)C2CN(C3c4ccc(Cl)cc4CCc4cccnc43)CCN2C(=O)OC(C)C)C1` (single isomer, unassigned) [Example 40] was 107 to 112 °C; that for `Cc1nccn1CC1CCCN(C(=O)C2CN(C3c4ccc(Cl)cc4CCc4cccnc43)CCN2C(=O)OC2CCCCC2)C1` (single isomer, unassigned) [Example 45] was 108 to 123 °C.

For the molecule `CC(C)(C)OC(=O)N1CCN(C2c3ccc(Cl)cc3CCc3cccnc32)CC1C(=O)N1CCCC(Cn2ccnc2)C1` (centres unmarked) [Example 25], the melting point was 124 to 143 °C.

Consider `CC(C)NC(=O)N1CCN([C@@H]2c3ccc(Cl)cc3CCc3cc(Br)cnc32)C[C@@H]1C(=O)N1CCC[C@@H](Cn2ccnc2)C1` [Example 17], for which the melting point lay within 132 to 136 °C. Same read-out and setting: the value for `CC(C)OC(=O)N1CCN([C@@H]2c3ccc(Cl)cc3CCc3cc(Br)cnc32)C[C@@H]1C(=O)N1CCC[C@H](Cn2ccnc2)C1` [Example 19] was 123 to 132 °C; that for `Cc1cn(CC2CCCN(C(=O)C3CN(C4c5ccc(Cl)cc5CCc5cccnc54)CCN3C(=O)OC(C)C)C2)cn1` (centres unmarked) [Example 37] was 95 to 111 °C; that for `Cc1nccn1CC1CCCN(C(=O)C2CN(C3c4ccc(Cl)cc4CCc4cccnc43)CCN2C(=O)OC(C)C)C1` (single isomer, unassigned) [Example 39] was 111 to 125 °C. On the same count and under the same terms, the value for `CCc1cn(CC2CCCN(C(=O)C3CN(C4c5ccc(Cl)cc5CCc5cccnc54)CCN3C(=O)OC(C)(C)C)C2)cn1` (centres unmarked) [35(D)] was 79 to 81 °C; that for `Cc1nccn1CC1CCCN(C(=O)C2CN(C3c4ccc(Cl)cc4CCc4cccnc43)CCN2C(=O)OC2CCCCC2)C1` (single isomer, unassigned) [Example 47] was 100 to 106 °C. On the same count and under the same terms, the value for `CCc1cn(CC2CCCN(C(=O)C3CN(C4c5ccc(Cl)cc5CCc5cccnc54)CCN3C(=O)OC(C)(C)C)C2)cn1` (centres unmarked) [35(C)] was 104 to 106 °C. `CC(C)(C)OC(=O)N1CCN(C2c3ccc(Cl)cc3CCc3cc(Br)cnc32)CC1C(=O)N1CCS(=O)(=O)C(Cn2ccnc2)C1` (centres unmarked) [Example 8] registered a melting point of 179 to 182 °C.

`Cc1cn(CC2CCCN(C(=O)C3CN(C4c5ccc(Cl)cc5CCc5cccnc54)CCN3C(=O)OC(C)C)C2)cn1` (centres unmarked) [Example 36]: the melting point lay in the range of 123 to 132 °C. `Cc1cn(C[C@@H]2CCCN(C(=O)[C@H]3CN(C4c5ccccc5CCc5ccccc54)CCN3C(=O)OC3CCCCC3)C2)cn1` [Example 414] showed a melting point of 98 to 112 °C.
